From patent publication US9237747B2, “Herbicidal compositions comprising 4-amino-3-chloro-5-fluoro-6-(4-chloro-2-fluoro-3-methoxyphenyl) pyridine-2-carboxylic acid or a derivative thereof and insecticides” (priority 2013, dated 2016)
“And” between values parts separate entries of the source, which are not always exact repeats. Identical values can stand only once. Like-named read-outs stand apart in the source and are kept apart here.

Tests used:
DIGSA = assay type: in vivo, Digitaria sanguinalis
Procedure: Seeds or nutlets of the desired test plant species were planted in a soil matrix prepared by mixing a loam or sandy loam soil (e.g., 28.6 percent silt, 18.8 percent clay, and 52.6 percent sand, with a pH of about 5.8 and an organic matter content of about 1.8 percent) and calcareous grit in an 80 to 20 ratio. The soil matrix was contained in plastic pots with a volume of 1 quart and a surface area of 83.6 square centimeters (cm^2). […] The plants were grown for 8-22 days in a greenhouse with an approximate 14 hour (h) photoperiod which was maintained at about 29° C. during the day and 26° C. during the night. Nutrients (Peters Excel® 15-5-15 5-Ca 2-Mg and iron chelate) were applied in the irrigation solution as needed and water was added on a regular basis. Supplemental lighting was provided with overhead metal halide 1000-Watt lamps as necessary. The plants were employed for testing when they reached the first through fourth true leaf stage.
(§1) Treatments consisted of the acid or esters of 4-amino-3-chloro-6-(4-chloro-2-fluoro-3-methoxyphenyl)-5-fluoropyridine-2-carboxylic acid (Compound A), each formulated as an SC (suspension concentrate), and various insecticidal components alone and in combination. Forms of compound A were applied on an acid equivalent basis.
(§2) For treatments comprised of formulated compounds, measured amounts of compounds were placed individually in 25 mL glass vials and diluted in a volume of 1.25% volume per volume (v/v) Agri-Dex® crop oil concentrate to obtain 12× stock solutions. […] Application solutions were prepared by adding an appropriate amount of each stock solution (e.g., 1 mL) and diluted to the appropriate final concentrations with the addition of […] of an aqueous mixture of 1.25% (v/v) crop oil concentrate so that the final spray solutions contained 1.25+/−0.05% (v/v) crop oil concentrate.
(§3) As required, additional water and/or 97:3 v/v acetone/DMSO was added to individual application solutions so that the final acetone and DMSO concentrations of the application solutions being compared were 8.1% and 0.25%, respectively.
(§4) All stock solutions and applications solutions were visually inspected for compound compatibility prior to application. Spray solutions were applied to the plant material with an overhead Mandel track sprayer equipped with 8002E nozzles calibrated to deliver 187 L/ha over an application area of 0.503 square meters (m^2) at a spray height of 18 to 20 inches (46 to 50 cm) above average plant canopy height. Control plants were sprayed in the same manner with the solvent blank.
(§5) The treated plants and control plants were placed in a greenhouse as described above and watered by sub-irrigation to prevent wash-off of the test compounds. After approximately 3 weeks, the condition of the test plants as compared to that of the untreated plants was determined visually and scored on a scale of 0 to 100 percent where 0 corresponds to no injury or growth inhibition and 100 corresponds to complete kill.
(§6) Colby's equation was used to determine the herbicidal effects expected from the mixtures (Colby, S. R. Calculation of the synergistic and antagonistic response of herbicide combinations. Weeds 1967, 15, 20-22.).
(§7) The following equation was used to calculate the expected activity of mixtures containing two active ingredients, A and B: Expected=A+B−(A×B/100)

ECHCG = assay type: in vivo, Echinochloa crus-galli
In short: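 Values are visual percent injury or growth inhibition relative to untreated plants, scored ~3 weeks after postemergence spraying, with Colby-expected mixture values computed as A+B−(A×B/100). Treatments were SC-formulated Compound A acid or esters plus insecticidal partners, applied in 1.25% v/v crop oil concentrate at 187 L/ha.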

LEFFA = test: Postemergence foliar-applied weed control, direct-seeded rice (greenhouse); assay type: in vivo, Leptochloa fascicularis
Description: (§8) Seeds or nutlets of the desired test plant species were planted in a soil matrix prepared by mixing a loam or sandy loam soil (e.g., 28.6 percent silt, 18.8 percent clay, and 52.6 percent sand, with a pH of about 5.8 and an organic matter content of about 1.8 percent) and calcareous grit in an 80 to 20 ratio. The soil matrix was contained in plastic pots with a volume of 1 quart and a surface area of 83.6 square centimeters (cm^2). When required to ensure good germination and healthy plants, a fungicide treatment and/or other chemical or physical treatment was applied. The plants were grown for 8-22 days in a greenhouse with an approximate 14 hour (h) photoperiod which was maintained at about 29° C. during the day and 26° C. during the night. Nutrients (Peters Excel® 15-5-15 5-Ca 2-Mg and iron chelate) were applied in the irrigation solution as needed and water was added on a regular basis. Supplemental lighting was provided with overhead metal halide 1000-Watt lamps as necessary. The plants were employed for testing when they reached the first through fourth true leaf stage.
as §1
(§9) Treatment requirements were calculated based upon the rates being tested, the concentration of active ingredient or acid equivalent in the formulation, and a 12 milliliter (mL) application volume at a rate of 187 liters per hectare (L/ha).
as §2, §3, §4, §5, §6, §7

LEFPA = test: as above; assay type: in vivo, Leptochloa panicoides
Description: as §8, §1, §9, §2, §3, §4, §5, §6, §7

SCPJU = test: as above; assay type: in vivo, Schoenoplectus juncoides; details: 4.38 g ae/ha alone
Description: as §8, with “Supplemental lighting was provided with overhead metal halide 1000-Watt lamps as necessary. The plants were employed for testing when they reached the first through fourth true leaf stage.” left out
as §9
For treatments comprised of formulated compounds, measured amounts of compounds were placed individually in 25 mL glass vials and diluted in a volume of 1.25% volume per volume (v/v) Agri-Dex® crop oil concentrate to obtain 12× stock solutions. […]

`COc1c(Cl)ccc(-c2nc(C(=O)O)c(Cl)c(N)c2F)c1F` [Compound A Acid, 4-amino-3-chloro-6-(4-chloro-2-fluoro-3-methoxyphenyl)-5-fluoropyridine-2-carboxylic acid] was tested, and the “Visual Weed Control (%) - 20 DAA DIGSA Obs” value (DIGSA; 4.38 g ae/ha alone) was 40%, the “Visual Weed Control (%) - 20 DAA DIGSA Obs” value (DIGSA; 5.3 g ae/ha alone) was 15% and the “Visual Weed Control (%) - 20 DAA DIGSA Obs” value (DIGSA; 10.6 g ae/ha alone) was 35%. The “Visual Weed Control (%) - 20 DAA DIGSA Obs” value (DIGSA; 21.2 g ae/ha alone) was 50%, the “Visual Weed Control (%) - 20 DAA ECHCG Obs” value (ECHCG; 4.38 g ae/ha alone) was 60% and the “Visual Weed Control (%) - 20 DAA ECHCG Obs” value (ECHCG; 5.3 g ae/ha alone) was 65%. The “Visual Weed Control (%) - 20 DAA ECHCG Obs” value (ECHCG; 8.75 g ae/ha alone) was 80%, the “Visual Weed Control (%) - 20 DAA ECHCG Obs” value (ECHCG; 10.6 g ae/ha alone) was 90% and the “Visual Weed Control (%) - 20 DAA ECHCG Obs” value (ECHCG; 17.5 g ae/ha alone) was 95%. The “Visual Weed Control (%) - 21 DAA ECHCG Obs” value (ECHCG; 5.3 g ae/ha alone) was 65%, the “Visual Weed Control (%) - 21 DAA ECHCG Obs” value (ECHCG; 10.6 g ae/ha alone) was 85% and the “Visual Weed Control (%) - 21 DAA ECHCG Obs” value (ECHCG; 21.2 g ae/ha alone) was 95%. For the same compound, the “Visual Weed Control (%) - 20 DAA ECHCG Obs” value (ECHCG; 21.2 g ae/ha alone) was 95%.
`COc1c(Cl)ccc(-c2nc(C(=O)OCc3ccccc3)c(Cl)c(N)c2F)c1F` [Compound A Benzyl Ester] was tested, and the “Visual Weed Control (%) - 20 DAA DIGSA Obs” value (DIGSA; 4.38 g ae/ha alone) was 40% and 25%, the “Visual Weed Control (%) - 20 DAA DIGSA Obs” value (DIGSA; 8 g ae/ha alone) was 20% and the “Visual Weed Control (%) - 21 DAA DIGSA Obs” value (DIGSA; 8 g ae/ha alone) was 10%. The “Visual Weed Control (%) - 22 DAA DIGSA Obs” value (DIGSA; 8 g ae/ha alone) was 13%, the “Visual Weed Control (%) - 20 DAA DIGSA Obs” value (DIGSA; 16 g ae/ha alone) was 23% and 30% and the “Visual Weed Control (%) - 22 DAA DIGSA Obs” value (DIGSA; 16 g ae/ha alone) was 18%. For the same compound, the “Visual Weed Control (%) - 20 DAA DIGSA Obs” value (DIGSA; 17.5 g ae/ha alone) was 15%, the “Visual Weed Control (%) - 19 DAA DIGSA Obs” value (DIGSA; 8 g ae/ha alone) was 30% and the “Visual Weed Control (%) - 19 DAA DIGSA Obs” value (DIGSA; 16 g ae/ha alone) was 35%. For the same compound, the “Visual Weed Control (%) - 19 DAA DIGSA Obs” value (DIGSA; 32 g ae/ha alone) was 40%, the “Visual Weed Control (%) - 22 DAA DIGSA Obs” value (DIGSA; 22 DAA, 8 g ae/ha alone) was 10% and 13% and the “Visual Weed Control (%) - 22 DAA DIGSA Obs” value (DIGSA; 22 DAA, 8 g ae/ha alone, second part of Table 18) was 13%. The “Visual Weed Control (%) - 22 DAA DIGSA Obs” value (DIGSA; 22 DAA, 16 g ae/ha alone) was 25% and 18% and 20%, the “Visual Weed Control (%) - 22 DAA DIGSA Obs” value (DIGSA; 22 DAA, 16 g ae/ha alone, second part of Table 18) was 18% and the “Visual Weed Control (%) - 22 DAA DIGSA Obs” value (DIGSA; 22 DAA, 32 g ae/ha alone) was 40% and 28% and 25%. For the same compound, the “Visual Weed Control (%) - 22 DAA DIGSA Obs” value (DIGSA; 22 DAA, 32 g ae/ha alone, second part of Table 18) was 28%, the “Visual Weed Control (%) - 20 DAA DIGSA Obs” value (DIGSA; 32 g ae/ha alone) was 30% and 40% and the “Visual Weed Control (%) - 22 DAA DIGSA Obs” value (DIGSA; 32 g ae/ha alone) was 28%. The “Visual Weed Control (%) - 20 DAA ECHCG Obs” value (ECHCG; 4.38 g ae/ha alone) was 60% and 70%, the “Visual Weed Control (%) - 19 DAA ECHCG Obs” value (ECHCG; 8 g ae/ha alone) was 85% and the “Visual Weed Control (%) - 20 DAA ECHCG Obs” value (ECHCG; 8 g ae/ha alone) was 70%. For the same compound, the “Visual Weed Control (%) - 22 DAA ECHCG Obs” value (ECHCG; 8 g ae/ha alone) was 50%, the “Visual Weed Control (%) - 20 DAA ECHCG Obs” value (ECHCG; 8.75 g ae/ha alone) was 85% and 80% and the “Visual Weed Control (%) - 19 DAA ECHCG Obs” value (ECHCG; 16 g ae/ha alone) was 85%. The “Visual Weed Control (%) - 22 DAA ECHCG Obs” value (ECHCG; 16 g ae/ha alone) was 60%, the “Visual Weed Control (%) - 20 DAA ECHCG Obs” value (ECHCG; 17.5 g ae/ha alone) was 90% and 95% and the “Visual Weed Control (%) - 21 DAA ECHCG Obs” value (ECHCG; 4.38 g ae/ha alone) was 70%. For the same compound, the “Visual Weed Control (%) - 21 DAA ECHCG Obs” value (ECHCG; 8.75 g ae/ha alone) was 85%, the “Visual Weed Control (%) - 21 DAA ECHCG Obs” value (ECHCG; 17.5 g ae/ha alone) was 90% and the “Visual Weed Control (%) - 22 DAA ECHCG Obs” value (ECHCG; 22 DAA, 8 g ae/ha alone) was 45% and 50%. The “Visual Weed Control (%) - 22 DAA ECHCG Obs” value (ECHCG; 22 DAA, 16 g ae/ha alone) was 60%, the “Visual Weed Control (%) - 22 DAA ECHCG Obs” value (ECHCG; 22 DAA, 32 g ae/ha alone) was 90% and 95% and the “Visual Weed Control (%) - 19 DAA ECHCG Obs” value (ECHCG; 32 g ae/ha alone) was 95%. The “Visual Weed Control (%) - 22 DAA LEFFA Obs” value (LEFFA; 8 g ae/ha alone) was 23%, the “Visual Weed Control (%) - 22 DAA LEFFA Obs” value (LEFFA; 16 g ae/ha alone) was 30% and the “Visual Weed Control (%) - 22 DAA LEFFA Obs” value (LEFFA; 22 DAA, 8 g ae/ha alone) was 23%. For the same compound, the “Visual Weed Control (%) - 22 DAA LEFFA Obs” value (LEFFA; 22 DAA, 16 g ae/ha alone) was 30%, the “Visual Weed Control (%) - 22 DAA LEFFA Obs” value (LEFFA; 22 DAA, 32 g ae/ha alone) was 45% and the “Visual Weed Control (%) - 22 DAA LEFFA Obs” value (LEFFA; 32 g ae/ha alone) was 45%. The “Visual Weed Control (%) - 22 DAA LEFPA Obs” value (LEFPA; 8 g ae/ha alone) was 5%, the “Visual Weed Control (%) - 22 DAA LEFPA Obs” value (LEFPA; 16 g ae/ha alone) was 0% and the “Visual Weed Control (%) - 22 DAA LEFPA Obs” value (LEFPA; 32 g ae/ha alone) was 38%. The “Visual Weed Control (%) - 22 DAA SCPJU Obs” value (SCPJU) was 70%.
